Laboratory results published in paper PMC4626217 (Bioorganic & medicinal chemistry, 2015).

How the values were obtained:
HDACs 1–3 = assay: HDAC biochemical assay, text summary over HDACs 1–3; design: species or system human; conditions: summary of Table 1; for IC50: read-out: IC50 for HDACs 1–3; for IC50 range in words: HDACs 1–3 where stated, unit inside the printed words
[1] = test system: 797 NUT midline carcinoma cell line; assay: 797 cell viability; format: cell-based; conditions: 48 hours incubation, ATPLite; ± standard error of LogIC50
[2] = test system: 10326 NUT midline carcinoma cell line; assay: 10326 cell viability; format: cell-based; conditions: 48 hours incubation, ATPLite; ± standard error of LogIC50
HDAC1 = HDAC1 (Homo sapiens, UniProt Q13547); assay: HDAC biochemical assay; conditions: relative to compound 6
HDAC1, sequence (Q13547 whole entry): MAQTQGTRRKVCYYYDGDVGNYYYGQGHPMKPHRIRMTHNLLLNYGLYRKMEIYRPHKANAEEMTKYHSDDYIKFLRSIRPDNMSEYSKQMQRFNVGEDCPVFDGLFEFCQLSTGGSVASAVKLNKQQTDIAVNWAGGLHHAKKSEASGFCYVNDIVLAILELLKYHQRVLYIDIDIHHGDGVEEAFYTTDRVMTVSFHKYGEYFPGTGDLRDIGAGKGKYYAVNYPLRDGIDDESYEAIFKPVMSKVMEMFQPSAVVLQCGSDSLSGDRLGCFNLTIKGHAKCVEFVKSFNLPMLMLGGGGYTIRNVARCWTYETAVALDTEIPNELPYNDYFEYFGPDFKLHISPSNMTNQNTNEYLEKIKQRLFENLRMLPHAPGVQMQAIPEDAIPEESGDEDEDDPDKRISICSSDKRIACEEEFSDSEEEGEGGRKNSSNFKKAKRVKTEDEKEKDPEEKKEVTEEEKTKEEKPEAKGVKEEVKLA

CC(C)[C@@H]1NC(=O)[C@]2(C)CSC(=N2)c2csc(n2)CNC(=O)C[C@@H](/C=C/CCS)OC1=O [Compound 2, Largazole thiol, reference compound]
IC50 (HDACs 1–3): < 25 nM

CC(C)[C@@H]1NC(=O)[C@]2(C)CSC(=N2)c2csc(n2)CNC(=O)C[C@@H](/C=C/CCS)NC1=O [Compound 4, Largazole peptide isostere thiol]
797 LogIC50 [1]: −5.761 ± 0.05449
10326 LogIC50 [2]: −4.923 ± 0.9900
IC50 (HDACs 1–3): < 25 nM

CC(C)[C@@H]1NC(=O)[C@]2(C)CSC(=N2)c2cccc(n2)CNC(=O)C[C@@H](/C=C/CCS)OC1=O [Compound 6, Depsipeptide pyridyl “IN” thiol]
IC50 (HDACs 1–3): < 25 nM
IC50 range in words (HDACs 1–3): single digit nM range

CC(C)[C@@H]1NC(=O)[C@]2(C)CSC(=N2)c2ccnc(c2)CNC(=O)C[C@@H](/C=C/CCS)OC1=O [Compound 8, Depsipeptide pyridyl “OUT” thiol]
IC50 (HDACs 1–3): < 25 nM
IC50 range in words (HDACs 1–3): single digit nM range

CC(C)[C@@H]1NC(=O)[C@]2(C)CSC(=N2)c2cccc(n2)CNC(=O)C[C@@H](/C=C/CCS)NC1=O [Compound 10, Peptide isostere pyridyl “IN” thiol]
fold decrease in activity in HDAC1 in going from 6 to its amide isostere (HDAC1): 16 fold
IC50 range in words (HDACs 1–3): double-digit nM range

CC(C)[C@@H]1NC(=O)[C@]2(C)CSC(=N2)c2ccnc(c2)CNC(=O)C[C@@H](/C=C/CCS)NC1=O [Compound 12, Peptide isostere pyridyl “OUT” thiol]
IC50 (HDACs 1–3): < 25 nM
IC50 range in words (HDACs 1–3): double-digit nM range
